Reference: patent US20210254272A1, “TEXTILES HAVING ANTIMICROBIAL PROPERTIES” (Livinguard AG, priority 2015, published 2021)

Assay: Leaching test: 100 g fabric soaked in 10 liters stagnant distilled water, 3 days (72 hours)
Type: physicochemical
Description: (§1) The test procedure for leaching was as follows: 100 g (grams) of fabric as well as control fabrics were soaked in 10 liters of stagnant distilled water in a closed wide mouth jar. After 3 days (72 hours), the water samples were tested for leached substances as per standard analytical methods.
as §1, with “methods. A weight of 100 g fabric was chosen because in the preferred embodiment of the water filter as described further below, each filter comprises a strip of fabric with 210 g/m^2, 3 meters long and 0.16 meters wide, which corresponds to 100 g of fabric.” for “methods.”

Substance: polyglucosamine [chitosan]
- Leaching of active ingredients (in ppm) (0.2% each in mixture (o.w.f), exhaust 80° C., 60 min, curing 180° C., 2 min, unwashed): 9 ppm
- Leaching of active ingredients (in ppm) (0.5% each in mixture (o.w.f), exhaust 80° C., 60 min, curing 180° C., 2 min, unwashed): 12 ppm
- Leaching of active ingredients (in ppm) (1.0% each in mixture (o.w.f), exhaust 80° C., 60 min, curing 180° C., 2 min, unwashed): 16 ppm
- Leaching of active ingredients (in ppm) (exhaust 60° C., solution dosage 1% o.w.f, process time 60 min): 21 ppm
- Leaching of active ingredients (in ppm) (exhaust 60° C., solution dosage 1% o.w.f, process time 90 min): 13 ppm
- Leaching of active ingredients (in ppm) (exhaust 60° C., solution dosage 1% o.w.f, process time 120 min): 14 ppm
- Leaching of active ingredients (in ppm) (exhaust 60° C., solution dosage 1% o.w.f, process time 180 min): 12 ppm
- Leaching of active ingredients (in ppm) (exhaust 60° C., solution dosage 1% o.w.f, process time 240 min): 13 ppm
- Leaching of active ingredients (in ppm) (exhaust 80° C., 1% o.w.f, 60 min, curing 170° C., curing dwell time 0.5 min): 28 ppm
- Leaching of active ingredients (in ppm) (exhaust 80° C., 1% o.w.f, 60 min, curing 170° C., curing dwell time 1.0 min): 26 ppm
- Leaching of active ingredients (in ppm) (exhaust 80° C., 1% o.w.f, 60 min, curing 170° C., curing dwell time 1.5 min): 20 ppm
- Leaching of active ingredients (in ppm) (exhaust 80° C., 1% o.w.f, 60 min, curing 170° C., curing dwell time 2.0 min): 13 ppm
- Leaching of active ingredients (in ppm) (exhaust 80° C., 1% o.w.f, 60 min, curing 170° C., curing dwell time 2.5 min): 18 ppm
- Leaching of active ingredients (in ppm) (exhaust 80° C., 1% o.w.f, 60 min, curing 170° C., curing dwell time 3.0 min): 18 ppm
- Leaching of active ingredients (in ppm) (exhaust 80° C., 1% o.w.f, 60 min, curing 180° C., curing dwell time 0.5 min): 21 ppm
- Leaching of active ingredients (in ppm) (exhaust 80° C., 1% o.w.f, 60 min, curing 180° C., curing dwell time 1.0 min): 13 ppm
- Leaching of active ingredients (in ppm) (exhaust 80° C., 1% o.w.f, 60 min, curing 180° C., curing dwell time 1.5 min): 14 ppm
- Leaching of active ingredients (in ppm) (exhaust 80° C., 1% o.w.f, 60 min, curing 180° C., curing dwell time 2.0 min): 3 ppm
- Leaching of active ingredients (in ppm) (exhaust 80° C., 1% o.w.f, 60 min, curing 180° C., curing dwell time 2.5 min): 12 ppm
- Leaching of active ingredients (in ppm) (exhaust 80° C., 1% o.w.f, 60 min, curing 180° C., curing dwell time 3.0 min): 12 ppm
- Leaching of active ingredients (in ppm) (exhaust 80° C., 1% o.w.f, 60 min, curing dwell time at 190° C. (title): 0.5 min): 20 ppm
- Leaching of active ingredients (in ppm) (exhaust 80° C., 1% o.w.f, 60 min, curing dwell time at 190° C. (title): 1.0 min): 13 ppm
- Leaching of active ingredients (in ppm) (exhaust 80° C., 1% o.w.f, 60 min, curing dwell time at 190° C. (title): 1.5 min): 12 ppm
- Leaching of active ingredients (in ppm) (exhaust 80° C., 1% o.w.f, 60 min, curing dwell time at 190° C. (title): 2.0 min): 11 ppm
- Leaching of active ingredients (in ppm) (exhaust 80° C., 1% o.w.f, 60 min, curing dwell time at 190° C. (title): 2.5 min): 25 ppm
- Leaching of active ingredients (in ppm) (exhaust 80° C., 1% o.w.f, 60 min, curing dwell time at 190° C. (title): 3.0 min): 35 ppm
- Leaching of active ingredients (in ppm) (exhaust 80° C., 60 min, dosage 1% o.w.f (test up to 5% o.w.f)): 2 ppm
- Leaching of active ingredients (in ppm) (exhaust 80° C., 60 min, dosage 2% o.w.f): 17 ppm
- Leaching of active ingredients (in ppm) (exhaust 80° C., 60 min, dosage 3% o.w.f): 41 ppm
- Leaching of active ingredients (in ppm) (exhaust 80° C., 60 min, dosage 4% o.w.f): 42 ppm
- Leaching of active ingredients (in ppm) (exhaust 80° C., 60 min, dosage 5% o.w.f): 72 ppm
- Leaching of active ingredients (in ppm) (exhaust 80 ° C., solution dosage 1% o.w.f, process time 10 min): 37 ppm
- Leaching of active ingredients (in ppm) (exhaust 80 ° C., solution dosage 1% o.w.f, process time 20 min): 25 ppm
- Leaching of active ingredients (in ppm) (exhaust 80 ° C., solution dosage 1% o.w.f, process time 30 min): 21 ppm
- Leaching of active ingredients (in ppm) (exhaust 80 ° C., solution dosage 1% o.w.f, process time 40 min): 16 ppm
- Leaching of active ingredients (in ppm) (exhaust 80 ° C., solution dosage 1% o.w.f, process time 50 min): 12 ppm
- Leaching of active ingredients (in ppm) (exhaust 80 ° C., solution dosage 1% o.w.f, process time 55 min): 5 ppm
- Leaching of active ingredients (in ppm) (exhaust 80 ° C., solution dosage 1% o.w.f, process time 60 min): 3 ppm
- Leaching of active ingredients (in ppm) (exhaust 80 ° C., solution dosage 1% o.w.f, process time 70 min): 2 ppm
- Leaching of active ingredients (in ppm) (exhaust 80 ° C., solution dosage 1% o.w.f, process time 80 min): 5 ppm
- Leaching of active ingredients (in ppm) (exhaust 80 ° C., solution dosage 1% o.w.f, process time 90 min): 8 ppm
- limit on the quantity of the agent that can be adhered to the textile in a non-leaching or substantially non-leaching manner (from Experimental examples I.1 and I.4): about 0.2 % o.w.f.
- Leaching of active ingredient (in ppm) (solution dosage 0.10% o.w.f, exhaust temperature 60° C., process time 60 min): 0 ppm
- Leaching of active ingredient (in ppm) (solution dosage 0.10% o.w.f, exhaust temperature 65° C., process time 60 min): 0 ppm
- Leaching of active ingredient (in ppm) (solution dosage 0.10% o.w.f, exhaust temperature 70° C., process time 60 min): 0 ppm
- Leaching of active ingredient (in ppm) (solution dosage 0.10% o.w.f, exhaust temperature 75° C., process time 60 min): 0 ppm
- Leaching of active ingredient (in ppm) (solution dosage 0.10% o.w.f, exhaust temperature 80° C., process time 60 min): 0 ppm
- Leaching of active ingredient (in ppm) (solution dosage 0.10% o.w.f, exhaust temperature 85° C., process time 60 min): 1 ppm
- Leaching of active ingredient (in ppm) (solution dosage 0.10% o.w.f, exhaust temperature 90° C., process time 60 min): 2 ppm
- Leaching of active ingredient (in ppm) (solution dosage 0.10% o.w.f, exhaust temperature 95° C., process time 60 min): 2 ppm
- Leaching of active ingredient (in ppm) (solution dosage 0.20% o.w.f, exhaust temperature 60° C., process time 60 min): 0 ppm
- Leaching of active ingredient (in ppm) (solution dosage 0.20% o.w.f, exhaust temperature 65° C., process time 60 min): 0 ppm
- Leaching of active ingredient (in ppm) (solution dosage 0.20% o.w.f, exhaust temperature 70° C., process time 60 min): 0 ppm
- Leaching of active ingredient (in ppm) (solution dosage 0.20% o.w.f, exhaust temperature 75° C., process time 60 min): 0 ppm
- Leaching of active ingredient (in ppm) (solution dosage 0.20% o.w.f, exhaust temperature 80° C., process time 60 min): 0 ppm
- Leaching of active ingredient (in ppm) (solution dosage 0.20% o.w.f, exhaust temperature 85° C., process time 60 min): 2 ppm
- Leaching of active ingredient (in ppm) (solution dosage 0.20% o.w.f, exhaust temperature 90° C., process time 60 min): 3 ppm
- Leaching of active ingredient (in ppm) (solution dosage 0.20% o.w.f, exhaust temperature 95° C., process time 60 min): 4 ppm
- Leaching of active ingredient (in ppm) (solution dosage 0.50% o.w.f, exhaust temperature 60° C., process time 60 min): 1 ppm
- Leaching of active ingredient (in ppm) (solution dosage 0.50% o.w.f, exhaust temperature 65° C., process time 60 min): 1 ppm
- Leaching of active ingredient (in ppm) (solution dosage 0.50% o.w.f, exhaust temperature 70° C., process time 60 min): 1 ppm
- Leaching of active ingredient (in ppm) (solution dosage 0.50% o.w.f, exhaust temperature 75° C., process time 60 min): 1 ppm
- Leaching of active ingredient (in ppm) (solution dosage 0.50% o.w.f, exhaust temperature 80° C., process time 60 min): 1 ppm
- Leaching of active ingredient (in ppm) (solution dosage 0.50% o.w.f, exhaust temperature 85° C., process time 60 min): 4 ppm
- Leaching of active ingredient (in ppm) (solution dosage 0.50% o.w.f, exhaust temperature 90° C., process time 60 min): 5 ppm
- Leaching of active ingredient (in ppm) (solution dosage 0.50% o.w.f, exhaust temperature 95° C., process time 60 min): 7 ppm
- Leaching of active ingredient (in ppm) (solution dosage 0.80% o.w.f, exhaust temperature 60° C., process time 60 min): 2 ppm
- Leaching of active ingredient (in ppm) (solution dosage 0.80% o.w.f, exhaust temperature 65° C., process time 60 min): 2 ppm
- Leaching of active ingredient (in ppm) (solution dosage 0.80% o.w.f, exhaust temperature 70° C., process time 60 min): 2 ppm
- Leaching of active ingredient (in ppm) (solution dosage 0.80% o.w.f, exhaust temperature 75° C., process time 60 min): 3 ppm
- Leaching of active ingredient (in ppm) (solution dosage 0.80% o.w.f, exhaust temperature 80° C., process time 60 min): 1 ppm
- Leaching of active ingredient (in ppm) (solution dosage 0.80% o.w.f, exhaust temperature 85° C., process time 60 min): 7 ppm
- Leaching of active ingredient (in ppm) (solution dosage 0.80% o.w.f, exhaust temperature 90° C., process time 60 min): 8 ppm
- Leaching of active ingredient (in ppm) (solution dosage 0.80% o.w.f, exhaust temperature 95° C., process time 60 min): 9 ppm
- Leaching of active ingredient (in ppm) (solution dosage 1.00% o.w.f, exhaust temperature 60° C., process time 60 min): 6 ppm
- Leaching of active ingredient (in ppm) (solution dosage 1.00% o.w.f, exhaust temperature 65° C., process time 60 min): 6 ppm
- Leaching of active ingredient (in ppm) (solution dosage 1.00% o.w.f, exhaust temperature 70° C., process time 60 min): 4 ppm
- Leaching of active ingredient (in ppm) (solution dosage 1.00% o.w.f, exhaust temperature 75° C., process time 60 min): 3 ppm
- Leaching of active ingredient (in ppm) (solution dosage 1.00% o.w.f, exhaust temperature 80° C., process time 60 min): 1.5 ppm
- Leaching of active ingredient (in ppm) (solution dosage 1.00% o.w.f, exhaust temperature 85° C., process time 60 min): 9 ppm
- Leaching of active ingredient (in ppm) (solution dosage 1.00% o.w.f, exhaust temperature 90° C., process time 60 min): 11 ppm
- Leaching of active ingredient (in ppm) (solution dosage 1.00% o.w.f, exhaust temperature 95° C., process time 60 min): 12 ppm
